According to patent publication US20230085307A1, “PYRIDAZINONE COMPOUND AND HERBICIDE” (NISSAN CHEMICAL CORPORATION, priority 2019, published 2023):

How the values were obtained:
oval-leafed pondweed = experiment: Test Example 2: herbicidal activity, application during weed generation under submerged conditions (Table 17, symbol C); format: in vivo, oval-leafed pondweed (Monochoria vaginalis); conditions: AAH 320 g/ha; application during weed generation, submerged conditions
Method in brief: (§1)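 Herbicide emulsion, diluted with water to the chosen amount, is applied onto 4 cm floodwater over alluvial soil where the weeds were co-sown and raised at 25–30° C. Application timing: 1–2 leaves. Assessment: three weeks afterwards.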

late watergrass [1] = experiment: Test Example 1: herbicidal activity, application before weed generation under submerged conditions (Table 16, symbol A); format: in vivo, late watergrass (Echinochloa oryzicola); conditions: amount of applied herbicide 320 g/ha
Method in brief: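 Submerged Wagner pots (alluvial soil, 4 cm water) sown with weed seeds and planted with 2.5-leaf rice seedlings; emulsifiable concentrate diluted in water applied to water surface on sowing day. Held in greenhouse at 25-30 °C; injury scored 0-5 by herbicidal rate after three weeks.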

green foxtail = experiment: Test Example 5: herbicidal effect by foliage application, plastic box (Table 20, symbol G); format: in vivo, green foxtail (Setaria viridis); conditions: foliage application, 320 g/ha, three weeks after application
Method in brief: (§2)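 Plants sown in sterilized diluvial soil and grown 14 days in a greenhouse at 25° C to 30° C, then sprayed on the foliage with the compound's emulsion diluted in water to a predetermined herbicide amount. Injury to weeds and crops scored three weeks after application on a visual rating scale.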

persian speedwell = experiment: Test Example 4: herbicidal effect by soil treatment (Table 19, symbol R); format: in vivo, Persian speedwell (Veronica persica); conditions: amount of applied herbicide 320 g/ha
Method in brief: (§3)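 Three weeks of greenhouse growth at 25° C. to 30° C. followed a uniform surface spray of water-diluted emulsion at a predetermined herbicide amount. Seeds had been sown beforehand under about 1.5 cm of sterilized diluvial soil. Grading followed criteria set out in an earlier test.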

blackgrass [2] = experiment: Test Example 4: herbicidal effect by soil treatment (Table 19, symbol J); format: in vivo, blackgrass (Alopecurus myosuroides); conditions: amount of applied herbicide 320 g/ha
Method in brief: as §3

blackgrass [3] = experiment: Test Example 5: herbicidal effect by foliage application, plastic box (Table 20, symbol J); format: in vivo, blackgrass (Alopecurus myosuroides); conditions: foliage application, 320 g/ha, three weeks after application
Method in brief: as §2

late watergrass [4] = experiment: Test Example 2: herbicidal activity, application during weed generation under submerged conditions (Table 17, symbol A); format: in vivo, late watergrass (Echinochloa oryzicola); conditions: AAH 320 g/ha; application during weed generation, submerged conditions
Method in brief: as §1

barnyard grass [5] = experiment: Test Example 4: herbicidal effect by soil treatment (Table 19, symbol H); format: in vivo, barnyard grass (Echinochloa crus-galli); conditions: amount of applied herbicide 320 g/ha
Method in brief: as §3

barnyard grass [6] = experiment: Test Example 5: herbicidal effect by foliage application, plastic box (Table 20, symbol H); format: in vivo, barnyard grass (Echinochloa crus-galli); conditions: foliage application, 320 g/ha, three weeks after application
Method in brief: as §2

Italian ryegrass = experiment: Test Example 5: herbicidal effect by foliage application, plastic box (Table 20, symbol K); format: in vivo, Italian ryegrass (Lolium multiflorum); conditions: foliage application, 320 g/ha, three weeks after application
Method in brief: as §2

lambsquarters = experiment: Test Example 4: herbicidal effect by soil treatment (Table 19, symbol O); format: in vivo, lambsquarters (Chenopodium album); conditions: amount of applied herbicide 320 g/ha
Method in brief: as §3

southern crabgrass = experiment: Test Example 4: herbicidal effect by soil treatment (Table 19, symbol F); format: in vivo, southern crabgrass (Digitaria ciliaris); conditions: amount of applied herbicide 320 g/ha
Method in brief: as §3

velvetleaf [7] = experiment: Test Example 4: herbicidal effect by soil treatment (Table 19, symbol M); format: in vivo, velvetleaf (Abutilon theophrasti); conditions: amount of applied herbicide 320 g/ha
Method in brief: as §3

barnyard grass [8] = experiment: Test Example 3: herbicidal effect by foliage application, Wagner pot (Table 18, symbol H); format: in vivo, barnyard grass (Echinochloa crus-galli); conditions: amount of applied herbicide 320 g/ha
Method in brief: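 Plants were sown in alluvial soil held under 0.1–0.5 cm standing water and grown 14 days in a greenhouse at 25–30 °C. An emulsifiable formulation, water-diluted to the set dose, was then sprayed onto the foliage, and effects were scored three weeks later using previously defined criteria.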

velvetleaf [9] = experiment: Test Example 5: herbicidal effect by foliage application, plastic box (Table 20, symbol M); format: in vivo, velvetleaf (Abutilon theophrasti); conditions: foliage application, 320 g/ha, three weeks after application
Method in brief: as §2

chickweed = experiment: Test Example 5: herbicidal effect by foliage application, plastic box (Table 20, symbol P); format: in vivo, common chickweed (Stellaria media); conditions: foliage application, 320 g/ha, three weeks after application
Method in brief: as §2

Compound | herbicidal effect rating, C: oval-leafed pondweed (oval-leafed pondweed) | Herbicidal effect, A: late watergrass (late watergrass [1]) | G: green foxtail, herbicidal effect grade (green foxtail) | J: blackgrass, herbicidal effect grade (blackgrass [3]) | herbicidal effect rating, A: late watergrass (late watergrass [4]) | H: barnyard grass, herbicidal effect grade (barnyard grass [6]) | K: Italian ryegrass, herbicidal effect grade (Italian ryegrass) | herbicidal effect on H: barnyard grass (barnyard grass [8]) | M: velvetleaf, herbicidal effect grade (velvetleaf [9]) | P: chickweed, herbicidal effect grade (chickweed) | R: persian speedwell, herbicidal effect grade (persian speedwell) | J: blackgrass, herbicidal effect grade (blackgrass [2]) | H: barnyard grass, herbicidal effect grade (barnyard grass [5]) | O: lambsquarters, herbicidal effect grade (lambsquarters) | F: southern crabgrass, herbicidal effect grade (southern crabgrass) | M: velvetleaf, herbicidal effect grade (velvetleaf [7]) | herbicidal effect on green foxtail (G) (green foxtail) | herbicidal effect on blackgrass (J) (blackgrass [3]) | herbicidal effect on barnyard grass (H) (barnyard grass [6]) | herbicidal effect on Italian ryegrass (K) (Italian ryegrass) | other results
COc1ccccc1-c1sc2cc(F)ccc2c1-c1c(OC(=O)c2ccco2)c(C)nn(C)c1=O [3-023] | 4 (Herbicidal rate of 70% or more and less than 90%) | 3 (Herbicidal rate of 40% or more and less than 70%) | 5 (Herbicidal rate of 90% or more (almost completely withered)) | 5 (Herbicidal rate of 90% or more (almost completely withered)) | 2 (Herbicidal rate of 20% or more and less than 40%) | 5 (Herbicidal rate of 90% or more (almost completely withered)) | 5 (Herbicidal rate of 90% or more (almost completely withered)) | 5 (Herbicidal rate of 90% or more (almost completely withered)) | 5 (Herbicidal rate of 90% or more (almost completely withered)) | 5 (Herbicidal rate of 90% or more (almost completely withered)) |  |  |  |  |  |  |  |  |  |  | herbicidal effect, R: persian speedwell (persian speedwell): 4 (Herbicidal rate of 70% or more and less than 90%); herbicidal effect, J: blackgrass (blackgrass [2]): 4 (Herbicidal rate of 70% or more and less than 90%); herbicidal effect, H: barnyard grass (barnyard grass [5]): 4 (Herbicidal rate of 70% or more and less than 90%); herbicidal effect, O: lambsquarters (lambsquarters): 2 (Herbicidal rate of 20% or more and less than 40%); herbicidal effect, F: southern crabgrass (southern crabgrass): 3 (Herbicidal rate of 40% or more and less than 70%); herbicidal effect, M: velvetleaf (velvetleaf [7]): 0 (Herbicidal rate of 5% or less (almost no effect))
COc1ccccc1-c1sc2cc(F)ccc2c1-c1c(OS(=O)(=O)c2ccc(C)cc2)c(C)nn(C)c1=O [3-027] | 3 (Herbicidal rate of 40% or more and less than 70%) | 2 (Herbicidal rate of 20% or more and less than 40%) | 5 (Herbicidal rate of 90% or more (almost completely withered)) | 4 (Herbicidal rate of 70% or more and less than 90%) | 3 (Herbicidal rate of 40% or more and less than 70%) | 5 (Herbicidal rate of 90% or more (almost completely withered)) | 3 (Herbicidal rate of 40% or more and less than 70%) | 5 (Herbicidal rate of 90% or more (almost completely withered)) | 5 (Herbicidal rate of 90% or more (almost completely withered)) | 3 (Herbicidal rate of 40% or more and less than 70%) | 0 (Herbicidal rate of 5% or less (almost no effect)) | 3 (Herbicidal rate of 40% or more and less than 70%) | 0 (Herbicidal rate of 5% or less (almost no effect)) | 0 (Herbicidal rate of 5% or less (almost no effect)) | 0 (Herbicidal rate of 5% or less (almost no effect)) | 0 (Herbicidal rate of 5% or less (almost no effect)) |  |  |  |  | 
COc1ccc(-c2oc3ccc(C)cc3c2-c2c(O)c(C)nn(C)c2=O)cc1 [9-007] | 5 (Herbicidal rate of 90% or more (almost completely withered)) | 5 (Herbicidal rate of 90% or more (almost completely withered)) |  |  | 4 (Herbicidal rate of 70% or more and less than 90%) |  |  |  |  |  | 5 (Herbicidal rate of 90% or more (almost completely withered)) | 4 (Herbicidal rate of 70% or more and less than 90%) | 3 (Herbicidal rate of 40% or more and less than 70%) | 4 (Herbicidal rate of 70% or more and less than 90%) | 5 (Herbicidal rate of 90% or more (almost completely withered)) | 3 (Herbicidal rate of 40% or more and less than 70%) | 4 (Herbicidal rate of 70% or more and less than 90%) | 4 (Herbicidal rate of 70% or more and less than 90%) | 4 (Herbicidal rate of 70% or more and less than 90%) | 5 (Herbicidal rate of 90% or more (almost completely withered)) | Herbicidal effect on H (barnyard grass), foliage application (barnyard grass [8]): 4 (Herbicidal rate of 70% or more and less than 90%); herbicidal effect on velvetleaf (M) (velvetleaf [9]): 5 (Herbicidal rate of 90% or more (almost completely withered))
CCCC(=O)Oc1c(C)nn(C)c(=O)c1-c1c(-c2ccc(OC)cc2)oc2ccc(C)cc12 [9-008] | 5 (Herbicidal rate of 90% or more (almost completely withered)) | 5 (Herbicidal rate of 90% or more (almost completely withered)) |  |  | 1 (Herbicidal rate of 5% or more and less than 20%) |  |  |  |  |  | 4 (Herbicidal rate of 70% or more and less than 90%) | 0 (Herbicidal rate of 5% or less (almost no effect)) | 3 (Herbicidal rate of 40% or more and less than 70%) | 4 (Herbicidal rate of 70% or more and less than 90%) | 3 (Herbicidal rate of 40% or more and less than 70%) | 0 (Herbicidal rate of 5% or less (almost no effect)) | 3 (Herbicidal rate of 40% or more and less than 70%) | 1 (Herbicidal rate of 5% or more and less than 20%) | 3 (Herbicidal rate of 40% or more and less than 70%) | 5 (Herbicidal rate of 90% or more (almost completely withered)) | Herbicidal effect on H (barnyard grass), foliage application (barnyard grass [8]): 2 (Herbicidal rate of 20% or more and less than 40%); herbicidal effect on velvetleaf (M) (velvetleaf [9]): 5 (Herbicidal rate of 90% or more (almost completely withered))
